From patent publication US12297190B2, “Modulators of STING (stimulator of interferon genes)” (PFIZER INC., priority 2019, dated 2025)
Where a name gives a salt, the structure may show the parent alone.

Assays:
STING [1] = biological target: T1, STING (Homo sapiens, UniProt Q86WV6, G230A/H232R/R293Q/R71H); test: Interferon-β induction: THP-1 Lucia ISG reporter cell line; assay type: cell-based; conditions: THP-1 Lucia ISG cells, 24 hours incubation, luciferase reporter; read-out: THP-1 Lucia ISG Cells IFN-β EC50
T1 construct: host or cells: THP-1 and THP-1 Lucia ISG cells
Procedure: Interferon-β Induction: THP-1 ISG Reporter Cell Line
THP-1 Lucia™ ISG cells (InvivoGen) express the secreted luciferase “Lucia” reporter gene under the control of an IRF-inducible composite promotor comprised of five interferon response elements. THP-1 Lucia™ ISG cells were grown in RPMI media plus 2 mM L-glutamine, 10% fetal bovine serum, and 0.5% Pen-Strep. Hygromycin B and Zeocin were present to maintain stable transfection. 10^4 cells were seeded in 96-well plates and incubated overnight 37° C., 5% CO2. 50 μL of serial diluted compounds in media (final 0.5% DMSO) was and incubated for an additional 24 hours. After incubation, the plates were centrifuged at 2000 rpm for 10 min. 50 μl of cell culture supernatant of each well was transferred to a white, opaque 96-well plate. One pouch of QUANTI-Luc™ (InvivoGen) powder was prepared in 25 mL of endotoxin-free water and 100 μL of prepared warm QUANTI-Luc solution were added to each well containing the supernatant. The luminescence signal was measured using a Perkin-Elmer Envision microplate reader. Data were normalized to “% effect” with a positive control STING agonist that was known to maximize the luciferase signal and the negative control DMSO.

STING [2] = biological target: T1, STING; test: Phosphorylation of IRF3: THP-1 cell ELISA; assay type: cell-based; conditions: THP-1 cells, 3 hours incubation, phospho-IRF3 ELISA; read-out: THP-1 CELL P-IRF3 EC50
Procedure: Phosphorylation of IRF3: THP-1 Cell ELISA
STING activation results in recruitment of TBK1 and phosphorylation of IRF3 transcription factor before induction of type I interferons. THP-1 cells (InvivoGen) were grown in RPMI media plus 2 mM L-glutamine, 10% fetal bovine serum, and 0.5% Pen-Strep. 10^4 cells were seeded in 96-well plates and incubated overnight 37° C., 5% CO2. Compounds serial diluted compounds in media (final 0.5% DMSO) were added to the cells and incubated for an additional 3 hours. After incubation, the plates were centrifuged at 2000 rpm for 5 min. The cells were then lysed in 100 μl RIPA buffer and vortexed for 30 minutes at room temperature. 25 μl of lysate was then transferred to clear polystyrene High Bind plates that had been previously coated with mouse anti-human IRF-3 capture antibody (BD Pharmigen), and allowed to incubate at 4° C. for 16 hours. The plates were then washed and incubated with rabbit anti-phospho-IRF3 detection antibody (Cell Signaling Technologies) for 1.5 hours at room temperature. Finally, an HRP-linked secondary antibody (Cell Signaling Technologies) was added for 30 min before the Glo Substrate Reagent (R&D Systems) was used generate the luminescent signal. The signal was measured using a Perkin-Elmer Envision microplate reader. Data were normalized to “% effect” with a positive control STING agonist that was known to maximize the phosphorylated IRF3 signal and the negative control was DMSO.

R232-STING = R232-STING (Homo sapiens, UniProt Q86WV6, H232R); test: biochemical
R232-STING, sequence (Q86WV6 155-341 H232R): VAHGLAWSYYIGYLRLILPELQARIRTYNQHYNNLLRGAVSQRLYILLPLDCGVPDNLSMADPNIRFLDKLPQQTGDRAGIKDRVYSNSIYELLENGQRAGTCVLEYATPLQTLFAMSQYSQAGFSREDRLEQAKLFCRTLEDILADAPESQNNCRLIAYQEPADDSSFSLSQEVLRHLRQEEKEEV

T1 sequence (Q86WV6 whole entry R71H/G230A/H232R/R293Q): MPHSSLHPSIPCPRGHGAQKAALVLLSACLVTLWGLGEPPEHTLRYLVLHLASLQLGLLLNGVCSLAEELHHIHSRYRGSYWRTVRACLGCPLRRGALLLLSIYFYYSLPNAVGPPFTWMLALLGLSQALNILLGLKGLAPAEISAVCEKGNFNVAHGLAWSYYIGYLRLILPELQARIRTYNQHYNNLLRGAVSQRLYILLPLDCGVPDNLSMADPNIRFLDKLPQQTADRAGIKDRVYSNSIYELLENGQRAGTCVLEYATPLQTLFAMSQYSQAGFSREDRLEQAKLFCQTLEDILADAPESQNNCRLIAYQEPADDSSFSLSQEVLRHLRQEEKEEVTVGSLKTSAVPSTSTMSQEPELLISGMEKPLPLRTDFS

Compound | EC50 (STING [1]) | EC50 (STING [2]) | Ki (R232-STING)
Cc1cc(-c2nc(-c3nc(C(N)=O)cc4c3cnn4C)n(C)n2)n(CCC(=O)O)n1 [Example C09, 3-{5-[5-(6-carbamoyl-1-methyl-1H-pyrazolo[4,3-c]pyridin-4-yl)-1-methyl-1H-1,2,4-triazol-3-yl]-3-methyl-1H-pyrazol-1-yl}propanoic acid] | 12300 nM | 15100 nM | 1.4 nM
CCn1nc(C)cc1-c1n[nH]c(-c2cc(C(N)=O)cc3c2cnn3CCN(C)CC(F)(F)F)n1 [Example D05, 4-[3-(1-ethyl-3-methyl-1H-pyrazol-5-yl)-1H-1,2,4-triazol-5-yl]-1-{2-[methyl(2,2,2-trifluoroethyl)amino]ethyl}-1H-indazole-6-carboxamide formic acid salt] | 19900 nM | 20200 nM | 232 nM
CCn1nc(C)cc1-c1n[nH]c(-c2cc(C(N)=O)cc3c2cnn3C(C)CN2CCOCC2)n1 (stereo not drawn) [Example D06, 4-[5-(1-ethyl-3-methyl-1H-pyrazol-5-yl)-4H-1,2,4-triazol-3-yl]-1-[1-(morpholin-4-yl)propan-2-yl]-1H-indazole-6-carboxamide] | ≥ 100000 nM | 82900 nM | 301 nM
CCn1nc(C)cc1-c1csc(-c2cc(C(N)=O)cc3c2cnn3C)n1 [Example H01, 4-[4-(1-ethyl-3-methyl-1H-pyrazol-5-yl)-1,3-thiazol-2-yl]-1-methyl-1H-indazole-6-carboxamide] | 7170 nM | 10800 nM | 87.6 nM
CCn1nc(C)c(F)c1-c1nc(-c2nc(C(N)=O)cc3c2cnn3CCN2CCC(C#N)CC2)n(C)n1 [Example J02] | 2760 nM | 3600 nM | 32.4 nM
CCn1nc(C)cc1-c1n[nH]c(-c2cc(C(N)=O)cc3c(C)n[nH]c23)n1 [Example L01, 7-[3-(1-ethyl-3-methyl-1H-pyrazol-5-yl)-1H-1,2,4-triazol-5-yl]-3-methyl-1H-indazole-5-carboxamide] | 3250 nM | 3090 nM | 66.2 nM
CCn1nc(C)cc1-c1n[nH]c(-c2cc(C(N)=O)cc3c2cnn3CCN2CC(F)C2)n1 [Example M01, 4-[3-(1-ethyl-3-methyl-1H-pyrazol-5-yl)-1H-1,2,4-triazol-5-yl]-1-[2-(3-fluoroazetidin-1-yl)ethyl]-1H-indazole-6-carboxamide trifluoroacetic acid salt] | 81900 nM | 77300 nM | 501 nM
CCn1nc(C)cc1-c1n[nH]c(-c2cc(C(N)=O)cc3c2cnn3CCN2CCC(F)(F)CC2)n1 [Example M02] | 22600 nM | 16600 nM | 278 nM
CCn1nc(C)cc1-c1n[nH]c(-c2cc(C(N)=O)cc3c2cnn3CCN2CC3CCC(C2)O3)n1 [Example M03] | 28500 nM | 32100 nM | 159 nM
CCn1nc(C)cc1-c1n[nH]c(-c2cc(C(N)=O)cc3c2cnn3CCN2C[C@H](C)OC[C@@H]2C)n1 [Example M04] | 28600 nM | 28000 nM | 306 nM
CCn1nc(C)cc1-c1n[nH]c(-c2cc(C(N)=O)cc3c2cnn3CC(=O)O)n1 [Example P01, {6-carbamoyl-4-[3-(1-ethyl-3-methyl-1H-pyrazol-5-yl)-1H-1,2,4-triazol-5-yl]-1H-indazol-1-yl}acetic acid] | ≥ 100000 nM | 75600 nM | 241 nM
CCn1nc(C)c(F)c1-c1nc(-c2nc(C(N)=O)cc3c2cnn3C)c(CN)s1 [Example S01, 4-[5-(aminomethyl)-2-(1-ethyl-4-fluoro-3-methyl-1H-pyrazol-5-yl)-1,3-thiazol-4-yl]-1-methyl-1H-pyrazolo[4,3-c]pyridine-6-carboxamide] | 2300 nM | 1300 nM | 11.5 nM
CCn1ncc(O)c1-c1nc(-c2nc(C(N)=O)cc3c2cnn3C)c(CN)o1 [Example U02] | 6200 nM | 6500 nM | 51.6 nM
Cc1nn(CCCO)c(-c2nc(-c3nc(C(N)=O)cc4c3cnn4C)c(CN)o2)c1O [Example U03] | 2520 nM | 2820 nM | 29.8 nM

Stronger by EC50 (STING [1]), values ahead:

EC50 (STING [1]) | EC50 (STING [2]) | Ki (R232-STING) | Compound
130 nM | 140 nM | 4.7 nM | CCn1nc(C)c(F)c1-c1n[nH]c(-c2nc(C(N)=O)cc3c2cnn3C)n1 [Example C08, 4-[3-(1-ethyl-4-fluoro-3-methyl-1H-pyrazol-5-yl)-1H-1,2,4-triazol-5-yl]-1-methyl-1H-pyrazolo[4,3-c]pyridine-6-carboxamide]
650 nM | 640 nM | 28.7 nM | CCn1nc(C)cc1-c1n[nH]c(-c2c(F)c(C(N)=O)cc3c2cnn3C)n1 [Example E01, 4-[3-(1-ethyl-3-methyl-1H-pyrazol-5-yl)-1H-1,2,4-triazol-5-yl]-5-fluoro-1-methyl-1H-indazole-6-carboxamide]
680 nM | 770 nM | 92.7 nM | CCn1nc(C)c(F)c1-c1nc(-c2cc(C(N)=O)cn3c(C)ncc23)n[nH]1 [Example F01, 8-[5-(1-ethyl-4-fluoro-3-methyl-1H-pyrazol-5-yl)-1H-1,2,4-triazol-3-yl]-3-methylimidazo[1,5-a]pyridine-6-carboxamide]
1180 nM | 1160 nM | 30.4 nM | CCn1nc(C)c(F)c1-c1c[nH]c(-c2cc(C(N)=O)cc3c2cnn3C)n1 [Example G02]
510 nM | 530 nM | 14.2 nM | CCn1nc(C)cc1-c1nc(-c2nc(C(N)=O)cc3c2cnn3C)n(C)n1 [Example J01, 4-[3-(1-ethyl-3-methyl-1H-pyrazol-5-yl)-1-methyl-1H-1,2,4-triazol-5-yl]-1-methyl-1H-pyrazolo[4,3-c]pyridine-6-carboxamide]
760 nM | 630 nM | 6.8 nM | CCn1nc(C)c(F)c1-c1nc(-c2nc(C(N)=O)cc3c2cnn3C)n(C)n1 [Example J03]
180 nM | 170 nM | 16 nM | CCn1nc(C)cc1-c1n[nH]c(-c2nc(C(N)=O)cc3c2cnn3C)n1 [Example K01, 4-[3-(1-ethyl-3-methyl-1H-pyrazol-5-yl)-1H-1,2,4-triazol-5-yl]-1-methyl-1H-pyrazolo[4,3-c]pyridine-6-carboxamide]
140 nM | 120 nM | 3.2 nM | CCn1nc(C)c(O)c1-c1nc(-c2nc(C(N)=O)cc3c2cnn3C)n(C)n1 [Example Q01, 4-[3-(1-ethyl-4-hydroxy-3-methyl-1H-pyrazol-5-yl)-1-methyl-1H-1,2,4-triazol-5-yl]-1-methyl-1H-pyrazolo[4,3-c]pyridine-6-carboxamide]
1460 nM | 980 nM | 27.7 nM | CCn1nc(C)cc1-c1nc(-c2nc(C(N)=O)cc3c2cnn3C)c(CN)o1 [Example T01, 4-[5-(aminomethyl)-2-(1-ethyl-3-methyl-1H-pyrazol-5-yl)-1,3-oxazol-4-yl]-1-methyl-1H-pyrazolo[4,3-c]pyridine-6-carboxamide]
1850 nM | 1990 nM | 34.4 nM | Cc1cc(-c2nc(-c3nc(C(N)=O)cc4c3cnn4C)c(CN)o2)n(CCCO)n1 [Example U04]
590 nM | 890 nM | 6.9 nM | Cc1nn(CCO)c(-c2nnc(-c3nc(C(N)=O)cc4c3cnn4C)[nH]2)c1O [Example V01, 4-{5-[4-hydroxy-1-(2-hydroxyethyl)-3-methyl-1H-pyrazol-5-yl]-4H-1,2,4-triazol-3-yl}-1-methyl-1H-pyrazolo[4,3-c]pyridine-6-carboxamide]
380 nM | 340 nM | 0.6 nM | CCn1nc(C)c(O)c1-c1nc(-c2nc(C(N)=O)cc3c2cnn3C)c(CN)s1 [Example X01, (4-(6-carbamoyl-1-methyl-1H-pyrazolo[4,3-c]pyridin-4-yl)-2-(1-ethyl-4-hydroxy-3-methyl-1H-pyrazol-5-yl)thiazol-5-yl)methanaminium formate]
